# Experimental data from patent publication US20150140121A1, “Compositions and Methods for Tight Junction Modulation” (Lankenau Institute for Medical Research, priority 2012, published 2015).
# Read-outs that look alike come from different tables or passages of the source.
# What was measured:
# epithelial TJs = settings: arginine; Rhoads et al. 2009; cited from earlier work
# [1] = system: human colonic (CACO-2) epithelial cell layer; settings: cited from earlier work
# [2] = system: human colonic (CACO-2) epithelial cell layer; settings: cited from earlier work; remark: listed apart in the source
# claudin-1 [3] = settings: cited from earlier work
# TJ = settings: glutamine; Seth et al. 2004; cited from earlier work
# LLC-PK1 cell layers [4] = test: Transepithelial electrical resistance (Rt) across LLC-PK1 cell layers; format: cell-based, porcine; settings: for transepithelial resistance: LLC-PK1 cell layers
# Description: (§1) LLC-PK1 is a porcine cell line model of the kidney proximal tubule.
# The effect of zinc and/or quercetin on the electrical resistance across LLC-PK1 renal epithelial cell layers was tested. Briefly, LLC-PK1 renal epithelial cell layers were treated with either 100 μM zinc alone, 400 μM quercetin alone; or both agents together. The stimulation of transepithelial electrical resistance (Rt) by maximally effective concentrations of zinc alone and quercetin alone was in the range of 50-60% of control levels. […] The results shown in FIG. 8 represent the mean+/− standard error for 12 cell layers. P values are for one-sided Student's t tests.
# LLC-PK1 cell layers [5] = test: Mannitol flux / leak across LLC-PK1 cell layers; format: cell-based, porcine; settings: for Mannitol Flux / mannitol leaking across the cell layer: LLC-PK1 cell layers; for Mannitol Flux: given as Decr (decrease)
# Description: FIG. 7A provides a graph of transepithelial resistance of untreated (control) LLC-PK1 cell layers or LLC-PK1 cell layers treated with 50 μM, 100 μM, or 200 μM zinc. FIG. 7B provides a graph of ^14C-D-mannitol leak across untreated (control) LLC-PK1 cell layers or LLC-PK1 cell layers treated with 50 μM, 100 μM, or 200 μM zinc.
# as §1
# Tricellulin [6] = test: Tricellulin expression in LLC-PK1 cell layers (Western immunoblot); format: cell-based, porcine
# Excerpt: (§2) Zinc has long been known to be efficacious in the treatment of certain types of diarrhea. It has been determined that zinc can render certain TJ barriers less leaky. Zinc effects can vary depending upon the specific type of epithelial layer.
# Claudin-2 = Claudin-2 expression in LLC-PK1 cell layers (Western immunoblot); format: cell-based, porcine
# Excerpt: as §2
# Claudin-3 = Claudin-3 expression in LLC-PK1 cell layers (Western immunoblot); format: cell-based, porcine
# Excerpt: as §2
# Claudin-4 [7] = test: Claudin-4 expression in LLC-PK1 cell layers (Western immunoblot); format: cell-based, porcine
# Excerpt: as §2
# Claudin-5 = Claudin-5 expression in LLC-PK1 cell layers (Western immunoblot); format: cell-based, porcine
# Excerpt: as §2
# Claudin-7 = Claudin-7 expression in LLC-PK1 cell layers; format: cell-based, porcine; settings: 400 μM Quercetin; LLC-PK1 cell layers; given as Incr (increase)
# occludin [8] = settings: cited from earlier work
# claudin 3 [9] = settings: quercetin 0.2 mM; CACO-2; Amasheh et al. 2008; cited from earlier work
# claudin-4 [10] = settings: cited from earlier work
# claudin 7 [11] = settings: quercetin 0.2 mM; CACO-2; Amasheh et al. 2008; cited from earlier work
# ZO-2 = settings: quercetin; independent study, Suzuki et al. 2009; cited from earlier work
# [12] = system: colonic (CACO-2) epithelial cell layers; settings: quercetin treatment; Suzuki et al. 2009; cited from earlier work
# Occludin [13] = test: Occludin expression in LLC-PK1 cell layers (Western immunoblot); format: cell-based, porcine; settings: zinc at 50 and 100 micromolar; LLC-PK1 epithelium
# Excerpt: as §2
# Claudin-1 [14] = test: Claudin-1 expression in LLC-PK1 cell layers (Western immunoblot); format: cell-based, porcine; settings: zinc at 50 and 100 micromolar; LLC-PK1 epithelium
# Excerpt: as §2
# [15] = system: human colonic (CACO-2) epithelial cell layer; test: Transepithelial electrical resistance (Rt) across CACO-2 cell layers; format: cell-based; settings: 50 or 100 micromolar zinc; CACO-2 cell layer
# Excerpt: (§3) When the effects of 50 or 100 micromolar zinc were examined on the TJ permeability of a human colonic (CACO-2) epithelial cell layer, the results were quite different. Here the Rt increased as with the renal epithelium. However, there was an increase—as opposed to a decrease—in a D-mannitol diffusion. In other words, zinc decreased leak to salts but increased leak to small nonelectrolytes. […] Even though the overall cellular content of the tight junction protein(s) may not be affected, zinc may cause a ‘shift’ in certain tight junction protein (e.g., certain claudins) out of the tight junctional complex and into the cell's cytoplasm.
# [16] = system: human colonic (CACO-2) epithelial cell layer; test: D-mannitol diffusion across CACO-2 cell layers; format: cell-based; settings: 50 or 100 micromolar zinc; CACO-2 cell layer
# Excerpt: as §3
# occludin [17] = test: Occludin amount / localization in colonic (CACO-2) epithelial cell layers; format: cell-based, human; settings: 50 or 100 micromolar zinc; CACO-2 cell layer
# Excerpt: as §3
# tricellulin [18] = test: Tricellulin amount in CACO-2 cell layers; format: cell-based, human; settings: 50 or 100 micromolar zinc; CACO-2 cell layer
# Excerpt: as §3
# claudin-1 [19] = test: Claudin 1 amount / localization in colonic (CACO-2) epithelial cell layers; format: cell-based, human; settings: 50 or 100 micromolar zinc; CACO-2 cell layer
# Excerpt: as §3
# claudin 2 = test: Claudin 2 amount in colonic (CACO-2) epithelial cell layers; format: cell-based, human; settings: 50 or 100 micromolar zinc; CACO-2 cell layer
# Excerpt: as §3
# claudin 3 [20] = test: Claudin 3 amount in colonic (CACO-2) epithelial cell layers; format: cell-based, human; settings: 50 or 100 micromolar zinc; CACO-2 cell layer
# Excerpt: as §3
# claudin-4 [21] = test: Claudin 4 amount in colonic (CACO-2) epithelial cell layers; format: cell-based, human; settings: 50 or 100 micromolar zinc; CACO-2 cell layer
# Excerpt: as §3
# claudin 5 = test: Claudin 5 amount in colonic (CACO-2) epithelial cell layers; format: cell-based, human; settings: 50 or 100 micromolar zinc; CACO-2 cell layer
# Excerpt: as §3
# claudin 7 [22] = test: Claudin 7 amount in colonic (CACO-2) epithelial cell layers; format: cell-based, human; settings: 50 or 100 micromolar zinc; CACO-2 cell layer
# Excerpt: as §3
# ZO-1 [23] = settings: zinc; colonic (CACO-2) epithelia; Finamore et al. 2008; cited from earlier work
# small intestine = settings: zinc supplementation, Zhang et al. 2009; cited from earlier work
# occludin [24] = settings: zinc supplementation; small intestine; Zhang et al. 2009; cited from earlier work
# ZO-1 [25] = settings: zinc supplementation; small intestine; Zhang et al. 2009; cited from earlier work
# [26] = glutamine, CACO-2 epithelial cell layers, Li et al. 2009
# [27] = 400 μM Quercetin, LLC-PK1 cell layers, given as Decr (decrease)
# [28] = 400 μM Quercetin, LLC-PK1 cell layers, given as Incr (increase)
# [29] = quercetin 0.2 mM, CACO-2, Amasheh et al. 2008
# [30] = quercetin, independent study, Suzuki et al. 2009
# [31] = zinc at 50 and 100 micromolar, LLC-PK1 epithelium
# [32] = zinc, LLC-PK1 renal epithelial model
smiles,measurement,setting,value
N=C(N)NCCC[C@H](N)C(=O)O [arginine],barrier-enhancing effects (compared with glutamine),epithelial TJs,very similar barrier-enhancing effects
NC(=O)CC[C@H](N)C(=O)O [glutamine],Rt,[1]; [26],increased
same,mannitol diffusion,[2]; [26],decreased
same,claudin-1 expression,claudin-1 [3]; [26],increasing
same,toxicity-related increases in TJ leakiness,TJ,reverse
O=c1c(O)c(-c2ccc(O)c(O)c2)oc2cc(O)cc(O)c12 [quercetin],transepithelial resistance,"LLC-PK1 cell layers [4]; 400 μM Quercetin, given as Incr (increase)",Incr > 20%
same,transepithelial resistance,"LLC-PK1 cell layers [4]; quercetin (100, 200, 400 μM, FIG. 4A)",increased
same,Mannitol Flux,LLC-PK1 cell layers [5]; 400 μM Quercetin,Decr > 20%
same,mannitol leaking across the cell layer,"LLC-PK1 cell layers [5]; quercetin (100, 200, 400 μM, FIG. 4B)",decrease
same,Tricellulin,Tricellulin [6]; [27],Decr 15%
same,Claudin-2,Claudin-2; [27],Decr 75%
same,expression of Claudin 2,"Claudin-2; 400 μM quercetin, LLC-PK1 cells, FIG. 3A",downregulated
same,Claudin-3,Claudin-3; [27],Decr 30%
same,Claudin-4,Claudin-4 [7]; [28],Incr 75%
same,Claudin-5,Claudin-5; [28],Incr 100%
same,expression of Claudin 5,"Claudin-5; 400 μM quercetin, LLC-PK1 cells, FIG. 3B",upregulated
same,Claudin-7,Claudin-7,Incr 200%
same,TJ permeability to Na+ and Cl− ions,[1]; [29],decreased
same,Rt,"[1]; quercetin 0.2 mM, colonic (CACO-2) epithelial cell layers, Amasheh et al. 2008",increased
same,TJ permeability to the nonelectrolyte D-mannitol,[2]; [29],no significant effect
same,amount of occludin,occludin [8]; [29],unaffected
same,cellular redistribution of occludin,occludin [8]; [30],cellular redistribution
same,amount of claudin 1,claudin-1 [3]; [29],unaffected
same,cellular redistribution of claudin-1,claudin-1 [3]; [30],cellular redistribution
same,amount of claudin 3,claudin 3 [9],unaffected
same,TJ content of claudin-4,claudin-4 [10]; [29],dramatic increase
same,increase in claudin-4,claudin-4 [10]; [30],confirmed
same,amount of claudin 7,claudin 7 [11],unaffected
same,cellular redistribution of ZO-2,ZO-2,cellular redistribution
same,permeability of the electrically charged dye Lucifer yellow,[12],decreased
[Zn] [zinc],transepithelial resistance,"LLC-PK1 cell layers [4]; 100 μM Zn, given as Incr (increase)",Incr > 40%
same,transepithelial resistance,"LLC-PK1 cell layers [4]; zinc (50, 100, 200 μM, FIG. 7A)",increased
same,transepithelial electrical resistance (Rt),"LLC-PK1 cell layers [4]; zinc at 50 and 100 micromolar, renal proximal tubular-like (LLC-PK1) epithelium",increased
same,Mannitol Flux,LLC-PK1 cell layers [5]; 100 μM Zn,Decr > 20%
same,mannitol leaking across the cell layer,"LLC-PK1 cell layers [5]; zinc (50, 100, 200 μM, FIG. 7B)",decrease
same,transepithelial diffusion of D-mannitol,LLC-PK1 cell layers [5]; [31],decreased
same,occludin expression by Western immunoblot,Occludin [13],none had exhibited increased or decreased expression
same,tricellulin expression by Western immunoblot,Tricellulin [6]; [31],none had exhibited increased or decreased expression
same,claudin 1 expression by Western immunoblot,Claudin-1 [14],none had exhibited increased or decreased expression
same,claudin 2 expression by Western immunoblot,Claudin-2; [31],none had exhibited increased or decreased expression
same,shift of claudin 2 out of the tight junctional complex into the cytoplasm,Claudin-2; [32],has been observed
same,claudin 3 expression by Western immunoblot,Claudin-3; [31],none had exhibited increased or decreased expression
same,claudin 4 expression by Western immunoblot,Claudin-4 [7]; [31],none had exhibited increased or decreased expression
same,shift of claudin 4 out of the tight junctional complex into the cytoplasm,Claudin-4 [7]; [32],has been observed
same,claudin 5 expression by Western immunoblot,Claudin-5; [31],none had exhibited increased or decreased expression
same,Rt,[15],increased
same,D-mannitol diffusion,[16],increase
same,occludin amount,occludin [17],no changes
same,tricellulin amount,tricellulin [18],no changes
same,claudin 1 amount,claudin-1 [19],no changes
same,claudin 2 amount,claudin 2,significant decreases
same,claudin 3 amount,claudin 3 [20],no changes
same,claudin 4 amount,claudin-4 [21],no changes
same,claudin 5 amount,claudin 5,no changes
same,claudin 7 amount,claudin 7 [22],significant decreases
same,localization of occludin,"occludin [8]; zinc, colonic (CACO-2) epithelia, Finamore et al. 2008",regulate the localization
same,localization of ZO-1,ZO-1 [23],regulate the localization
same,leakage of the small non-electrolyte lactulose,small intestine,decreasing
same,levels of occludin,occludin [24],increased
same,levels of ZO-1,ZO-1 [25],increased
